pKd: −log10 of the molar value. Where a SMILES comes first, the peptide text is derived from it. Bridges are numbered along the chain shown (N, C = ends). Where no end group is shown, it is not given here. [ ]: non-standard residue; d: D form.
What was measured:
DU145 cells [1] = assay: CCK-8 cell proliferation, DU145 cells; type: cell-based, human; conditions: DU145, concentrations of 6.25 and 12.5 μM
Protocol: (§1) The cell lines, including DU145 (human prostate cancer cells, American Type Culture Collection/ATCC, Manassas, VA), LNCaP (human prostate cancer cells, ATCC, Manassas, VA), KYSE30 (human esophageal squamous cell carcinoma cells, ATCC, Manassas, VA), KYSE510 (human esophageal squamous cell carcinoma cells, ATCC, US), L02 (human normal liver cells, ATCC, Manassas, VA), and MCF‐7 (human breast cancer cells, ATCC, Manassas, VA) were cultured in DMEM medium (Thermo Gibco, Waltham, MA) with 10% FBS (Biological Industries, Israel). The SGC7901 (human gastric cancer cells, ATCC, Manassas, VA) cells were maintained in RPMI‐1640 medium (Thermo Gibco, Waltham, MA) with 10% FBS. All these cell lines were cultured at 37°C in a 5% CO2 cell incubator (Bio‐Rad, Hercules, CA). Subculture of these cell lines was employed with 0.25% trypsin (Thermo Gibco, Waltham, MA).
The cells were seeded at a density of 30 000 cells/mL based on cell counting performed with a cell counting plate. […]
(§2) Cell proliferation was evaluated using the Enhanced CCK‐8 cell proliferation and toxicity test kit (Meilunbio, China) according to the product specifications. Finally, the OD450 nm and OD630 nm were measured with an iMark dual wavelength microplate reader (Bio‐Rad, Hercules, CA), and the ratio of OD450 nm/OD630 nm was calculated.

DU145 cells [2] = assay: Colony formation of DU145 cells; type: cell-based, human; conditions: 12.5 μM
Protocol: Cell colony formation was also employed to evaluate the effect of P5 and DcP5. The DU145 cells were seeded in six‐well plates (500 cells/well). The cultural supernatant was removed at 48 hours posttreatment, followed by washing with PBS three times. The cells were then fixed with 4% paraformaldehyde and air dried. Crystal violet staining was performed using solution (Sangon, China) as per the instructions. Then, photographs were taken, and spot amounts were calculated with an Invitrogen Countess II FL (Thermo, Waltham, MA) cell counter.
(§3) In our study, peptide cyclization was achieved by adding two cysteine residues to each end of the peptides. Cysteine is a chiral molecule. The natural cysteine is L‐cysteine, and a report has shown that introduction of unnatural D‐cysteine can theoretically improve the stability of the cyclic peptide in vivo.[41], [42], [43] Therefore, we designed and synthesized two cyclic peptides, DcP5 and LcP5, with two L‐cysteines or D‐cysteines at each end, respectively. The amino acid polymers of DcP5 and LcP5 were synthesized via the same organic chemistry as the P5 peptide. The cysteine‐ending peptides were spontaneously cyclized at 37°C in PBS (pH = 9.0) for 12 hours. […] Then, the binding affinity of these two cyclic peptides to FGFR2 was measured by ITC as described in Section 2.1. […]

[3] = test system: phosphorylated FGFR2, AKT, and ERK1/2; assay: Western blot of phosphorylated FGFR2, AKT and ERK1/2 in xenograft tumors; type: in vivo, BALB/C‐nu/nu mice; conditions: tumor tissue of xenograft mice
Protocol: DU145 cells with a density above 90% were harvested in to a microtube. The cell concentration was adjusted to 1 × 10^7 cells/mL, and two million cells were injected under the right arm of each individual. […] Animal models were randomly selected and assigned to each experimental group, and compounds were administered by intratumoral injections. The dosing regimen was one injection a day for 7 days. The length and width of the tumor were measured using a Vernier caliper once a day, and the animal's weight was recorded once a day from the beginning of the experiment. On Day 14, blood samples of each animal were collected, the tumor tissue was separated and weighed, and internal organs were collected. The tumor volume was calculated according to the formula V = ab ^2/2 (a refers to the length of the tumor, and b refers to the width).
Cell lysates were subjected to SDS‐PAGE for Western blotting. Briefly, cells were lysed with RIPA buffer (Thermo, Waltham, MA), followed by heat denaturation in 1X Laemmli SDS buffer (Sigma, St Louis, MO). For SDS‐PAGE 100 μg proteins were loaded to each lane. After electrophoresis, the proteins were transferred onto PVDF membranes, followed by blocking in 5% nonfat milk. […] The bands were quantified using Image Lab Software 6.0 (Bio‐Rad, Hercules, CA).

[4] = test system: heart, liver, spleen, lung, and kidney; assay: H&E staining of major organs of tumor-bearing mice; type: in vivo, BALB/C‐nu/nu mice; conditions: tumor-bearing mice at functional doses, paraffin sections
Protocol: (§4) DU145 cells with a density above 90% were harvested in to a microtube. The cell concentration was adjusted to 1 × 10^7 cells/mL, and two million cells were injected under the right arm of each individual. After injection, the tumors grew to a size of approximately 200 mm^3 in the following days. […] Animal models were randomly selected and assigned to each experimental group, and compounds were administered by intratumoral injections. The dosing regimen was one injection a day for 7 days. The length and width of the tumor were measured using a Vernier caliper once a day, and the animal's weight was recorded once a day from the beginning of the experiment. On Day 14, blood samples of each animal were collected, the tumor tissue was separated and weighed, and internal organs were collected. The tumor volume was calculated according to the formula V = ab ^2/2 (a refers to the length of the tumor, and b refers to the width).
Briefly, the connective tissue around the parenchyma organ was removed and washed three times in PBS, and the tissues were fixed with 10% formalin solution for 24 hours, followed by gradient ethanol dehydration. The tissues were then subjected to paraffin embedding. Sections of 4 μm thickness were prepared for H&E staining. H&E staining was performed according to the standard protocol of the H&E staining kit (Solarbio, China).

FGFR2 on DU145 cells = assay: Immunofluorescence assay (IFA) of biotin-labeled peptide binding to DU145 cells; type: cell-based, human
Protocol: The binding affinity was analyzed under fluorescent microscope. GFP‐labeled DU145 cells were cultured to a density of 50%, followed by 4% paraformaldehyde fixation. After treated with 0.2% Triton X‐100, the cells were then blocked with 5% BSA. The incubation was performed by different treatments and SA‐PE‐TRITC was used as a fluorescent indicator; briefly, the FGFR2 mAb group (Abcam [Cambridge, MA] followed by PE‐TRITC‐labeled goat antimouse IgG for color development), and the blank group (equal amounts of PBS followed by SA‐PE‐TRITC as a fluorescent indicator were added). After adding the biotin‐labeled P5 peptide, biotin‐labeled P5‐3 peptide or anti‐FGFR2 mAb, the cells were incubated at 4°C overnight. After washing five times with PBST, the TRITC‐labeled streptavidin regent or TRITC‐labeled secondary antibody was introduced for another incubation at 25°C for 30 minutes in dark. Finally, the DAPI staining reagent was employed to stain the nucleus for 10 minutes in dark, followed by washing five times with PBS. After the addition of ProLong Antifade mounting medium (Thermo, Waltham, MA), a confocal microscope (OLS4100, Japan) was used for observation.

[5] = Body weight of tumor-bearing mice; type: in vivo, BALB/C‐nu/nu mice; conditions: various dosing regimens; data not shown
Protocol: as §4

DU145 xenograft = DU145 xenograft in nude mice, tumor growth; type: in vivo, BALB/C‐nu/nu mice; conditions: intratumoral injection once a day for 7 days, evaluated to Day 14, P5 10-25 mg/kg, DcP5 10, 25, 50 mg/kg, P5-3 50 mg/kg
Protocol: The specific pathogen‐free (SPF) level experimental male nude mice were purchased from the Animal Center of Guangdong Province (China), and the strain was BALB/C‐nu/nu. The animal experiments were conducted by the Animal Experimental Center of Jinan University (China) according to the National Institutes of Health guide for the care and use of Laboratory animals. The treatment and experimental procedure met the requirements of animal ethics.
as §4

[6] = test system: FGFR2 knockdown DU145 cells; assay: Growth inhibition in FGFR2-knockdown (shFGFR2) DU145 cells; type: cell-based, human; conditions: DU145, shFGFR2 knockdown vs wild type
Protocol: The cells were seeded at a density of 30 000 cells/mL based on cell counting performed with a cell counting plate. Different concentrations of the P5 peptide were added to the cultural medium, followed by a 24‐hour incubation at 37°C in a 5% CO2 cell incubator (Bio‐Rad, Hercules, CA). Five replicates were set up for each experimental group.
as §2
The shFGFR2 plasmid was purchased from Sigma (St Louis, MO) (TRCN0000218493). One microliter Lip3000 (Lipofectamine 3000, Invitrogen, Carlsbad, CA) was mixed with 100 ng plasmid in nonserum DMEM medium before being added into the cultural DU145 cells. The cells were incubated with the Lip3000/plasmid solution for 6 hours, followed by DMEM with 10% FBS incubation. The transfected cells were then ready for growth‐inhibition experiment and RNA extraction for qPCR.

[7] = Peptide concentration in peripheral blood after administration; type: in vivo, BALB/C‐nu/nu mice; conditions: 25 mg/kg, serum; for time before blood concentration dropped below half C max: mice, biotin quantitation kit, sampled 0.5-24 hours postadministration
Protocol: as §4, with “On Day 14, blood samples of each animal were collected, the tumor tissue was separated and weighed, and internal organs were collected.” left out
Serum in the blood was separated and used to perform biotin quantitation with a Biotin Quantitation assay kit (MyBioSource, San Diego, CA) to calculate the concentration of the biotin‐peptide complex in the blood sample. Serum samples from the blank group were used as background controls, and serum of the 25 mg/kg‐dose P5 group and 25 mg/kg‐dose DcP5 group was examined in this step.

FGFR2 = FGFR2 (Homo sapiens, UniProt P21802); assay: Isothermal titration calorimetry (ITC) binding to FGFR2 protein; conditions: in Figure 4A, read-out: KD, P5-FGFR2
Protocol: A set of peptide candidates was designed with manual inspection, synthesized with a chemical dehydration reaction, and verified with MS. To screen the candidates, an in vitro binding assay using isothermal titration calorimetry (ITC) was performed against the FGFR2 protein using AutoiTC200 (MicroCal, MA). After the positive candidate was confirmed by ITC, three analog peptides with different mutant amino acids were designed to verify the active site previously determined. The binding affinity of each mutant analog to FGFR2 was measured using ITC and compared with the positive candidate.
as §3

L02 normal liver cells = assay: Toxicity toward L02 normal liver cells; type: cell-based, human; conditions: in vitro
Protocol: as §1, §2

FGFR2, sequence (P21802 22-821): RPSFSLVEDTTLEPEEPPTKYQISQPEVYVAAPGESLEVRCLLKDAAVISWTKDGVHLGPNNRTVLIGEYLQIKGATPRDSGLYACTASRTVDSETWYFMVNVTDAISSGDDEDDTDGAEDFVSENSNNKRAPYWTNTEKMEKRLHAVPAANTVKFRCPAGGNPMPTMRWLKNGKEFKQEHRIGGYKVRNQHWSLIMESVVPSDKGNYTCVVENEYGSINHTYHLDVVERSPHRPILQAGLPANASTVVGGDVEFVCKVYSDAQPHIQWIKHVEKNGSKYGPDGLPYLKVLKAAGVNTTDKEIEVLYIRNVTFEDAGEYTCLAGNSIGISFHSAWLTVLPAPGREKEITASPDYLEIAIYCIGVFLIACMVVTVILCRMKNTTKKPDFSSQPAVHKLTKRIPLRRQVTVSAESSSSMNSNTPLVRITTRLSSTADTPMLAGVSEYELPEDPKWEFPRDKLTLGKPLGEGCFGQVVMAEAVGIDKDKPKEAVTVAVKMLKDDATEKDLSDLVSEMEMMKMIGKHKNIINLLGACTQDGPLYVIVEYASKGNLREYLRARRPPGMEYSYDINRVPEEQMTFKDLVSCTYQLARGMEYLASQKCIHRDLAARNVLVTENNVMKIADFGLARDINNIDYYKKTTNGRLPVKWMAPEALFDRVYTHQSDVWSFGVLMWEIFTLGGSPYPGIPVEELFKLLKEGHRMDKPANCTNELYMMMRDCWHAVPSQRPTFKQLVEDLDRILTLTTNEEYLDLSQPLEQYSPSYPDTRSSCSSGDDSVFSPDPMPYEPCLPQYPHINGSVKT

| Molecule | growth-inhibition rate relative to P5 (DU145 cells [1]) | colony number versus control group (DU145 cells [2]; 500 cells/well, crystal violet) | less colonies than cells exposed to P5 (DU145 cells [2]; P < .05) [%] | phosphorylation of FGFR2, AKT, and ERK1/2 [3] | toxicity toward heart, liver, spleen, lung, and kidney (H&E morphology) [4] | fluorescent intensity of treated cells relative to P5 (FGFR2 on DU145 cells; IFA) | binding to FGFR2 on cells (IFA) (FGFR2 on DU145 cells; biotin-labeled peptide) | body weight versus other groups incl. blank [5] | tumor growth in xenograft (DU145 xenograft) | growth inhibitory effect in FGFR2 knockdown cells compared to wild type cells [6] | time before blood concentration dropped below half C max [7] [h] | concentration in peripheral blood relative to P5 ([7]; 0.5 hour after administration, biotin quantitation kit (biotin-peptide)) | pKd (FGFR2) | toxicity toward normal cells (L02 normal liver cells) |
| --- | --- | --- | --- | --- | --- | --- | --- | --- | --- | --- | --- | --- | --- | --- |
| CC(C)C[C@@H]1NC(=O)[C@H](N)CSSC[C@H](C(=O)O)NC(=O)[C@H](CCCNC(=N)N)NC(=O)[C@H](CCC(=O)O)NC(=O)[C@H](CCC(=O)O)NC(=O)[C@H](C)NC(=O)[C@H](CCC(N)=O)NC(=O)[C@H](CC(C)C)NC(=O)[C@H](CCC(N)=O)NC1=O [DcP5] (H-[dC]LQLQAEER[dC]-OH; disulfide 1-10; N-terminus and C-terminus assumed) | stronger inhibition than P5 | significantly less than the control group | 20 | reduced | remained normal | significantly stronger | bind to FGFR2 | little difference in body weight | significantly decreased the tumor size in dose‐dependent manner | significantly decreased | 7 | twice |  |  |
| LQLQAEER [P5] |  |  |  |  | negligible toxicity |  |  | little difference in body weight |  |  | 5 |  | 6.31 | negligible toxicity |

— PMC8491194, “A cyclic peptide retards the proliferation of DU145 prostate cancer cells in vitro and in vivo through inhibition of FGFR2” (MedComm, 2020)
